Literature values in patent US11051972B1 (priority 2020, dated 2021).
Read-outs that look alike come from different tables or passages of the source.

Tests used:
[1] = system: novel coronavirus (COVID-19); settings: multi-center study in China, journal article [14, 20]

| Structure (SMILES) | % Excreted Unchanged or Active Metabolite in Urine (urine) [%] | % Excreted Unchanged or Active Metabolite in Urine (in vivo) [%] | effectiveness against the novel coronavirus (COVID-19) [1] |
| --- | --- | --- | --- |
| CCC(CC)COC(=O)[C@H](C)N[P@](=O)(OC[C@H]1O[C@@](C#N)(c2ccc3c(N)ncnn23)[C@H](O)[C@@H]1O)Oc1ccccc1 [Remdesevir] | 60 | – | – |
| C[C@H]1COc2c(N3CCN(C)CC3)c(F)cc3c(=O)c(C(=O)O)cn1c23 [Levaquin] | – | 85 | – |
| CCC(CC)[C@H](NC(C)=O)[C@@H]1[C@H](O)[C@@H](C(=O)O)C[C@H]1N=C(N)N [Rapivab] | 90 | – | – |
| CCN(CC)CCCC(C)Nc1ccnc2cc(Cl)ccc12 (stereo not shown) [Chloroquine] | – | 70 | effective |
| CC(=O)N[C@H]1[C@H]([C@H](O)[C@H](O)CO)OC(C(=O)O)=C[C@@H]1N=C(N)N [Relenza] | 90 | – | – |
| CCOC(=O)C1=C[C@@H](OC(CC)CC)[C@H](NC(C)=O)[C@@H](N)C1 [Tamiflu] | 90 | – | – |
